Legend:
P2X purinoceptor 7 [1] = target: T1, P2X purinoceptor 7 (Homo sapiens, UniProt Q99572); test: Antagonist activity at P2X7 receptor in human THP1 cells assessed as inhibition of BzATP-induced ethidium uptake; type: functional, cell-based, THP-1; details: for pIC50: thp-1; for Kb: read-out: pA2 (converted)
T1 sequence (Q99572 whole entry): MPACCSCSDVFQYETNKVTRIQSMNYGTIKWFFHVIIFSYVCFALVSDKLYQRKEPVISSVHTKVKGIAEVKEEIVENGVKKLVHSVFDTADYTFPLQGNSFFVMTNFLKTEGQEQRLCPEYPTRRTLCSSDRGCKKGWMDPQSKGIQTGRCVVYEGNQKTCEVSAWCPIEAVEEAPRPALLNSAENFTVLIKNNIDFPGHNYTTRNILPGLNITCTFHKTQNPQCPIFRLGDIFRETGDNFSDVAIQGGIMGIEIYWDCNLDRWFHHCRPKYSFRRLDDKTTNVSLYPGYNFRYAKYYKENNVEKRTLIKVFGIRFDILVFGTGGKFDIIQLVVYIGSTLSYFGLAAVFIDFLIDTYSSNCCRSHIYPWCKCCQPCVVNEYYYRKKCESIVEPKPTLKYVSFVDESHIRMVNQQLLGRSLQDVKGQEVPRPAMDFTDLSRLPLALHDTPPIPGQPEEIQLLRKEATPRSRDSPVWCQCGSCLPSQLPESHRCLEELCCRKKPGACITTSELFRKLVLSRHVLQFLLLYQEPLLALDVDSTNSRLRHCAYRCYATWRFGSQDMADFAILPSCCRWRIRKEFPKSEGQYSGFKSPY

P2X purinoceptor 7 [2] = target: T1, P2X purinoceptor 7; test: Antagonist activity at human P2X7 receptor expressed in human U373 cells assessed as inhibition of BzATP-induced Yo-Pro uptake; type: functional, cell-based, U-373MG ATCC
[3] = target: T2, P2X purinoceptor 7 (Homo sapiens) (UniProt Q99572); details: HEK293, at 3 µM
T2 sequence (whole entry): T1 sequence (Q99572 whole entry)

COC(=O)NC(CCc1ccncc1)COc1ccc(-c2cccc([N+](=O)[O-])c2)cc1 (centres undefined)
IC50 (P2X purinoceptor 7 [1]): > 10000 nM

CC(CC1=N[C@H](c2ccccc2)[C@H](c2ccccc2)N1)c1ccccc1 (some centres undefined)
IC50 (P2X purinoceptor 7 [2]): 31.6 nM

Fc1cccc(CC2=N[C@H](c3ccccc3)[C@H](c3ccccc3)N2)c1
IC50 (P2X purinoceptor 7 [2]): 79.4 nM

C[C@@]1(c2cccc(F)c2)N=C(NCc2cccc(F)c2)N[C@@H]1c1cccc(F)c1
IC50 (P2X purinoceptor 7 [2]): 39.8 nM

O=C(NCC12CC3CC(CC(C3)C1)C2)c1cc(CCCNCCc2cnc[nH]2)ccc1Cl
pIC50 (P2X purinoceptor 7 [1]): > 5

Fc1cccc(CNC2=N[C@@H](c3ccccc3)[C@@H](c3ccccc3)N2)c1
IC50 (P2X purinoceptor 7 [2]): 100 nM

O=C(N[C@@H](Cc1ccc(OS(=O)(=O)c2ccccc2)cc1)C(=O)N1CCN(C(=O)OCc2ccccc2)CC1)OCc1ccccc1
inhibition [3]: 48%

O=C(NCC12CC3CC(CC(C3)C1)C2)c1cc(N2CCNCC2)ncc1Cl
pIC50 (P2X purinoceptor 7 [1]): > 5

c1ccc(CCCCC2=N[C@H](c3ccccc3)[C@H](c3ccccc3)N2)cc1
IC50 (P2X purinoceptor 7 [2]): 631 nM

O=C(Cc1ccc(C(F)(F)F)c(F)c1)Nc1cccc2c1CCN(C(=O)[C@H]1CCCN1)C2
IC50 (P2X purinoceptor 7 [1]): 79.4 nM

CC(C)NC(=O)c1cnc(N2CCC(N3C(=O)OCc4ccccc43)CC2)c(Cl)c1
pIC50 (P2X purinoceptor 7 [1]): >= 4.5

c1ccc(C2=N[C@@H](c3ccccc3)[C@@H](c3ccccc3)N2)cc1
IC50 (P2X purinoceptor 7 [2]): 3980 nM

Cc1ccc2c(NC(=O)C[C@H](C)c3ccccc3)c(Cl)ccc2n1
IC50 (P2X purinoceptor 7 [1]): 316 nM

CC(C)(C)OC(=O)N1CCN(C(=O)[C@H](Cc2ccc(OS(=O)(=O)c3cccc4cccnc34)cc2)NS(C)(=O)=O)CC1
inhibition [3]: < 10%

O=C(CC1CCCCC1)Nc1c(Cl)ccc2nc(NCCCO)ccc12
IC50 (P2X purinoceptor 7 [1]): 25.1 nM

O=C(O)CNCCNc1ccc(Cl)c(C(=O)NCC23CC4CC(CC(C4)C2)C3)c1
pIC50 (P2X purinoceptor 7 [1]): > 5

c1ccc(CCC2=N[C@H](c3ccccc3)[C@H](c3ccccc3)N2)cc1
IC50 (P2X purinoceptor 7 [2]): 79.4 nM

CC(C)(CC1=N[C@H](c2ccccc2)[C@H](c2ccccc2)N1)c1ccccc1
IC50 (P2X purinoceptor 7 [2]): 10 nM

Cc1ccc(S(=O)(=O)N[C@@H](Cc2ccc(OS(=O)(=O)c3cccc4cccnc34)cc2)C(=O)N2CCN(C(=O)OC(C)(C)C)CC2)cc1
inhibition [3]: 32%

O=C(N[C@@H](Cc1ccc(OS(=O)(=O)c2ccccc2)cc1)C(=O)N1CCN(S(=O)(=O)c2ccccc2)CC1)OCc1ccccc1
inhibition [3]: < 10%

C[C@@H]1CN(CC(=O)Nc2cccc3ncccc23)CCN1S(=O)(=O)c1ccc(S(C)(=O)=O)cc1
pIC50 (P2X purinoceptor 7 [1]): >= 5

Fc1cccc(CNC2=N[C@@H](c3ccccc3Cl)[C@@H](c3ccccc3Cl)N2)c1
IC50 (P2X purinoceptor 7 [2]): 398 nM

Clc1ccc(CCC2=N[C@H](c3ccccc3)[C@H](c3ccccc3)N2)cc1
IC50 (P2X purinoceptor 7 [2]): > 1000 nM

Cc1ccccc1NC(=O)CC12CC3CC(CC(C3)C1)C2
Kb (P2X purinoceptor 7 [1]): 158 nM

CC(=O)NC(CCc1ccncc1)COc1ccc(-c2cccc([N+](=O)[O-])c2)cc1 (centres undefined)
IC50 (P2X purinoceptor 7 [1]): > 10000 nM

CC(C)(C)OC(=O)N1CCN(C(=O)[C@H](Cc2ccc(OS(=O)(=O)c3ccccc3)cc2)NC(=O)OCc2ccccc2)CC1
inhibition [3]: 59%

CCC(=O)N1CCN(C(=O)[C@H](Cc2ccc(OS(=O)(=O)c3ccccc3)cc2)NC(=O)OCc2ccccc2)CC1
inhibition [3]: < 10%

CC(C)(C)OC(=O)N1CCN(C(=O)[C@H](Cc2ccc(OC(=O)c3ccccc3)cc2)NC(=O)OCc2ccccc2)CC1
inhibition [3]: 47%

Clc1ccccc1CCC1=N[C@@H](c2ccccc2)[C@@H](c2ccccc2)N1
IC50 (P2X purinoceptor 7 [2]): 63.1 nM

c1ccc([C@H]2N=C(C3Cc4ccccc4C3)N[C@H]2c2ccccc2)cc1
IC50 (P2X purinoceptor 7 [2]): 31.6 nM

CN(CCO)CCc1cc(C(=O)NCC23CC4CC(CC(C4)C2)C3)c(Cl)cn1
IC50 (P2X purinoceptor 7 [1]): 15.8 nM

Fc1cccc(COC2=N[C@H](c3ccccc3)[C@H](c3ccccc3)N2)c1
IC50 (P2X purinoceptor 7 [2]): 200 nM

Cc1ccc2nc(CCNCCCO)ccc2c1NC(=O)CC12CC3CC(CC(C3)C1)C2
IC50 (P2X purinoceptor 7 [1]): 15.8 nM

Clc1cccc(CCC2=N[C@H](c3ccccc3)[C@H](c3ccccc3)N2)c1
IC50 (P2X purinoceptor 7 [2]): 126 nM

O=C(NCC12CC3CC(CC(C3)C1)C2)c1ccnc(N2CCNCC2)c1Cl
pIC50 (P2X purinoceptor 7 [1]): > 5

CC(C)(C)OC(=O)N1CCN(C(=O)[C@H](Cc2ccc(OS(=O)(=O)c3cccc4cccnc34)cc2)NC(=O)OCc2ccccc2)CC1
inhibition [3]: 53%

O=C(NCC12CC3CC(CC(C3)C1)C2)c1cc(-n2ncc(=O)[nH]c2=O)ccc1Cl
IC50 (P2X purinoceptor 7 [1]): 50.1 nM

CN(C(=O)c1ccc(N2CCC(N3C(=O)OCc4ccccc43)CC2)c([N+](=O)[O-])c1)C1CCCCC1
pIC50 (P2X purinoceptor 7 [1]): >= 4.5

CCS(=O)(=O)N1CCc2c(ccc(C)c2NC(=O)Cc2ccc(C(F)(F)F)c(F)c2)C1
IC50 (P2X purinoceptor 7 [1]): 25.1 nM

CNC[C@@H](O)Cc1ccc(Cl)c(C(=O)NCC23CC4CC(CC(C4)C2)C3)c1
IC50 (P2X purinoceptor 7 [1]): 10 nM

Cc1ccccc1CC1=N[C@H](c2ccccc2)[C@H](c2ccccc2)N1
IC50 (P2X purinoceptor 7 [2]): 316 nM

NC1CCN(c2nccc(C(=O)NCC34CC5CC(CC(C5)C3)C4)c2Cl)CC1
pIC50 (P2X purinoceptor 7 [1]): > 5

COc1ccc(S(=O)(=O)Oc2ccc(C[C@H](NC(=O)OCc3ccccc3)C(=O)N3CCN(C(=O)OC(C)(C)C)CC3)cc2)cc1
inhibition [3]: 62%

COC(=O)N(C)C(CCc1ccncc1)COc1ccc(-c2cccc([N+](=O)[O-])c2)cc1 (centres undefined)
IC50 (P2X purinoceptor 7 [1]): > 10000 nM

Fc1ccccc1CC1=N[C@H](c2ccccc2)[C@H](c2ccccc2)N1
IC50 (P2X purinoceptor 7 [2]): 631 nM

CC(C)(C)OC(=O)N1CCN(C(=O)[C@H](Cc2ccc(OS(=O)(=O)c3cccc4cccnc34)cc2)NS(=O)(=O)c2ccccc2)CC1
inhibition [3]: < 10%

C[C@@H](C(N)=O)n1ccc2c(NC(=O)CC34CC5CC(CC(C5)C3)C4)c(Cl)ccc2c1=O
IC50 (P2X purinoceptor 7 [1]): 0.0794 nM

O=C(CC12CC3CC(CC(C3)C1)C2)Nc1cccc2nc(NCCCO)ccc12
IC50 (P2X purinoceptor 7 [1]): 7.94 nM

O=C(Cc1ccc(F)c(C(F)(F)F)c1)Nc1cccc2c(=O)n([C@@H]3CNC[C@H]3O)ccc12
IC50 (P2X purinoceptor 7 [1]): 2.51 nM

CCOC(=O)Oc1ccc(C[C@H](NC(=O)OCc2ccccc2)C(=O)N2CCN(C(=O)OC(C)(C)C)CC2)cc1
inhibition [3]: < 10%

O=C(NCC12CC3CC(CC(C3)C1)C2)c1cc(OCCCNCCCO)ccc1Cl
pIC50 (P2X purinoceptor 7 [1]): > 5

CC(C)(C)OC(=O)N1CCN(C(=O)[C@H](Cc2ccc(OS(=O)(=O)c3cccc4cnccc34)cc2)NC(=O)OCc2ccccc2)CC1
inhibition [3]: 43%

O=C(Cc1cccc(C(F)(F)F)c1F)Nc1c(Cl)ccc2c(=O)n(C3CC3)ccc12
IC50 (P2X purinoceptor 7 [1]): 0.316 nM

CCC(=O)Oc1ccc(C[C@H](NC(=O)OCc2ccccc2)C(=O)N2CCN(C(=O)OC(C)(C)C)CC2)cc1
inhibition [3]: < 10%

Cc1ccc(S(=O)(=O)Oc2ccc(C[C@H](NC(=O)OCc3ccccc3)C(=O)N3CCN(C(=O)OC(C)(C)C)CC3)cc2)cc1
inhibition [3]: 71%

CC(C)(C)OC(=O)N1CCN(C(=O)[C@@H](N)Cc2ccc(OS(=O)(=O)c3cccc4cccnc34)cc2)CC1
inhibition [3]: < 10%

CC(C)(C)OC(=O)N1CCN(C(=O)[C@H](Cc2ccc(O)cc2)NC(=O)OCc2ccccc2)CC1
inhibition [3]: < 10%

CC(C)(C)OC(=O)N1CCN(C(=O)[C@H](Cc2ccc(OS(=O)(=O)c3cccc4cccnc34)cc2)NC(=O)c2ccccc2)CC1
inhibition [3]: 13%

CC(C)(C)OC(=O)N1CCN(C(=O)[C@H](Cc2ccc(OS(=O)(=O)c3cccc4cccnc34)cc2)NS(=O)(=O)c2cccc3cnccc23)CC1
inhibition [3]: 37%

O=C(CC1CCCCCC1)Nc1cccc2c(=O)n([C@H]3CCNC3)ccc12
IC50 (P2X purinoceptor 7 [1]): 3.16 nM

O=C(NCC1(O)CCCCC1)c1cc(-n2ncc(=O)[nH]c2=O)ccc1Cl
IC50 (P2X purinoceptor 7 [1]): 398 nM

CC(C)(C)OC(=O)N1CCN(C(=O)[C@H](Cc2ccc(OS(C)(=O)=O)cc2)NC(=O)OCc2ccccc2)CC1
inhibition [3]: < 10%

O=C(CC12CC3CC(CC(C3)C1)C2)Nc1c(Cl)ccc2nc(CN3CCN(CCO)CC3)ccc12
IC50 (P2X purinoceptor 7 [1]): 20 nM

Cc1cccc(C)c1NC(=O)CN1CC2CCC(C1)N2c1ncnc2sccc12
pIC50 (P2X purinoceptor 7 [1]): >= 5

CC(C)(C)OC(=O)N1CCN(C(=O)[C@H](Cc2ccc(OS(=O)(=O)c3cccc4cccnc34)cc2)NS(=O)(=O)c2cccc3cccnc23)CC1
inhibition [3]: 61%

O=C(NCC12CC3CC(CC(C3)C1)C2)c1ccc(Cl)cc1
IC50 (P2X purinoceptor 7 [1]): > 10000 nM

COc1ccc(Cl)c(C(=O)NCC23CC4CC(CC(C4)C2)C3)c1
Kb (P2X purinoceptor 7 [1]): 1.58 nM

CCCCC(CC)CNC(=O)c1cc(-n2ncc(=O)[nH]c2=O)ccc1Cl (centres undefined)
IC50 (P2X purinoceptor 7 [1]): 794 nM

CC(CO)NC(=O)c1cnc(N2CCC(N3C(=O)OCc4ccccc43)CC2)nc1C(F)(F)F (centres undefined)
pIC50 (P2X purinoceptor 7 [1]): >= 4.5

CS(=O)(=O)NC(=O)NCCCc1ccc2c(C(=O)NCC3CCCCC3)c(Cl)ccc2n1
IC50 (P2X purinoceptor 7 [1]): 501 nM

O=C(NC12CC3CC(CC(C3)C1)C2)c1ccccc1Cl
IC50 (P2X purinoceptor 7 [1]): > 10000 nM

CC(C)(C)OC(=O)N1CCN(C(=O)[C@H](Cc2ccc(OC(=O)OCc3ccccc3)cc2)NC(=O)OCc2ccccc2)CC1
inhibition [3]: < 10%

Clc1cccc(-c2nnnn2Cc2c(Cl)cccc2Cl)c1Cl
IC50 (P2X purinoceptor 7 [1]): 126 nM

CC(C)C(CO)n1ccc2c(NC(=O)CC34CC5CC(CC(C5)C3)C4)cccc2c1=O (centres undefined)
IC50 (P2X purinoceptor 7 [1]): 0.0501 nM

O=C(NCC12CC3CC(CC(C3)C1)C2)c1ccnc(NCC2CCNCC2)c1Cl
pIC50 (P2X purinoceptor 7 [1]): > 5

O=C(CNc1ccc(F)c(F)c1)Nc1cc(OC2CCNCC2)ccc1Cl
pIC50 (P2X purinoceptor 7 [1]): > 4.5

CCOC(=O)N[C@@H](Cc1ccc(OS(=O)(=O)c2cccc3cccnc23)cc1)C(=O)N1CCN(C(=O)OC(C)(C)C)CC1
inhibition [3]: < 10%

O=C(NCC12CC3CC(CC(C3)C1)C2)c1cc(OC2CCNCC2)ncc1Cl
pIC50 (P2X purinoceptor 7 [1]): > 5

O=C(N[C@@H](Cc1ccc(OS(=O)(=O)c2ccccc2)cc1)C(=O)N1CCN(C(=O)c2ccccc2)CC1)OCc1ccccc1
inhibition [3]: 78%

Reference: ChEMBL document CHEMBL1151820, “Antagonists of the P2X(7) receptor. From lead identification to drug development” (J Med Chem, 2009)
